The values below come from patent US12404304B1, “Telomerase reverse transcriptase (TERT) expression enhancing compounds and methods for using the same” (Sierra Sciences, LLC, priority 2007, dated 2025).

One data set concerns viable cells in culture. Nature of the data set: Cell viability assay (CellTiter-Glo Luminescent Cell Viability Assay, ATP quantitation, percent of vehicle control).
In data set [1] the test system is human TERT expression (hTERT mRNA). The experiment in a line: Quantitative real-time RT-PCR of hTERT mRNA expression (Ct, transcripts) in compound-treated cells. The data set is classed as cell-based. To be noted: quantitative real-time RT-PCR. The method in brief: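 Read-out is cycle threshold, the cycle at which probe fluorescence released by Taq 5′-nuclease activity crosses a set level; Ct falls as hTERT mRNA rises. cDNA of treated and untreated cells was compared, with starting transcripts quantified against a known-cDNA standard curve.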
(In general: Quantitative PCR measures a nucleic acid by following its amplification.)

With `CCOC(=O)c1ccc(N2C(=O)c3[nH]nc(-c4ccco4)c3C2c2ccc(O)cc2)cc1` (centres unmarked) [compound 1198], the “Average Cell Viability after 24 Hours (% DMSO)” value in the data set on viable cells in culture amounted to 64.75 % DMSO. Moreover, the “Average Number of hTERT Transcripts” value in data set [1] is listed as 104.02.
For `CCOC(=O)c1ccc(N2C(=O)c3[nH]nc(-c4cccs4)c3C2c2ccc(O)c(OCC)c2)cc1` (centres unmarked) [compound 1199], in that order: 57.55 % DMSO and 110.78.
As for `CCCc1nnc(NC(=O)CSc2nnc(-c3cccs3)o2)s1` [compound 1200], in the data set with viable cells in culture, the “Average Cell Viability after 24 Hours (% DMSO)” value was 74.03 % DMSO. The “Average Number of hTERT Transcripts” value in data set [1] was determined as 198.48.
As to `O=C(Nc1nc(-c2ccccn2)cs1)c1nc2ccccc2s1` [compound 1201], the “Average Cell Viability after 24 Hours (% DMSO)” value with viable cells in culture came to 74.59 % DMSO. The “Average Number of hTERT Transcripts” value in data set [1] is recorded as 49.55.
On the same counts, the results for `O=C(CS(=O)(=O)c1ccccc1)Nc1nc(-c2ccccn2)cs1` [compound 1202] are 72.91 % DMSO and 141.08.
For `O=C(CS(=O)(=O)c1ccc(F)cc1)Nc1nc(-c2ccccn2)cs1` [compound 1203], in that order: 73.09 % DMSO and 119.23.
For `O=C(Nc1nc(-c2ccccn2)cs1)C1COc2ccccc2O1` (centres unmarked) [compound 1204], in that order: 55.98 % DMSO and 76.87.
In the case of `O=C(Nc1nc(-c2ccccn2)cs1)c1ccc2ncsc2c1` [compound 1205], in the data set on viable cells in culture, the “Average Cell Viability after 24 Hours (% DMSO)” value was found to be 86.42 % DMSO. Moreover, the “Average Number of hTERT Transcripts” value in data set [1] came to 114.55.
Take `O=C(NCC1CCCO1)c1cc(-c2cccs2)on1` (centres unmarked) [compound 1206]: in the data set on viable cells in culture, the “Average Cell Viability after 24 Hours (% DMSO)” value is 83.74 % DMSO. Further, in data set [1], the “Average Number of hTERT Transcripts” value is on record as 80.15.
On the same counts, the results for `CCNC(=O)c1cc(-c2cccs2)on1` [compound 1207] are 87.06 % DMSO and 275.25.
As for `O=C(NC1CC1)c1cc(-c2cccs2)on1` [compound 1208], in the data set on viable cells in culture, the “Average Cell Viability after 24 Hours (% DMSO)” value is reported as 70.93 % DMSO. Besides, in data set [1], the “Average Number of hTERT Transcripts” value stood at 380.09.
Take `C=CCN1C(C(=O)c2ccccc2)=C(OC(=O)c2ccc(Cl)cc2)c2ccccc2S1(=O)=O` [compound 1209]: in the data set with viable cells in culture, the “Average Cell Viability after 24 Hours (% DMSO)” value is on record as 91.26 % DMSO. Also, in data set [1], the “Average Number of hTERT Transcripts” value is 21.73.
On the same counts, the results for `O=C(CN1C(C(=O)c2ccccc2)=C(O)c2ccccc2S1(=O)=O)c1ccc(Br)cc1` [compound 1210] are 62.70 % DMSO and 26.56.
For `O=C(CN1C(C(=O)c2ccccc2)=C(N2CCCCC2)c2ccccc2S1(=O)=O)c1ccccc1` [compound 1211], in that order: 81.77 % DMSO and 52.31.
For `O=C(CN1C(C(=O)c2ccccc2)=C(O)c2ccccc2S1(=O)=O)c1ccccc1` [compound 1212], in that order: 80.54 % DMSO and 38.44.
For `CCCN1C(C(=O)c2ccccc2)=C(OC(=O)CC)c2ccccc2S1(=O)=O` [compound 1213], the “Average Cell Viability after 24 Hours (% DMSO)” value with viable cells in culture is 69.85 % DMSO. For the same compound, the “Average Number of hTERT Transcripts” value in data set [1] stood at 5.90.
On the same counts, the results for `CCCCN1C(C(=O)c2ccccc2)=C(OC(C)=O)c2ccccc2S1(=O)=O` [compound 1214] are 55.08 % DMSO and 32.75.
For `CCCCN1C(C(=O)c2ccccc2)=C(OC(=O)CC)c2ccccc2S1(=O)=O` [compound 1215], in that order: 52.19 % DMSO and 7.76.
With `CCCCN1C(C(=O)c2ccccc2)=C(OC(=O)c2ccco2)c2ccccc2S1(=O)=O` [compound 1216], the “Average Cell Viability after 24 Hours (% DMSO)” value in the data set on viable cells in culture is on record as 42.91 % DMSO. The “Average Number of hTERT Transcripts” value in data set [1] was found to be 5.19.
For the compound `CCCCN1C(C(=O)c2ccccc2)=C(OC(=O)C(C)C)c2ccccc2S1(=O)=O` [compound 1217], the “Average Cell Viability after 24 Hours (% DMSO)” value with viable cells in culture was found to be 45.00 % DMSO. In addition, in data set [1], the “Average Number of hTERT Transcripts” value is 10.04.
On the same counts, the results for `CCCCC(=O)OC1=C(C(=O)c2ccccc2)N(CC)S(=O)(=O)c2ccccc21` [compound 1218] are 82.36 % DMSO and 3.35.
As to `Cc1nn(C)cc1CNC(=O)C1C2CCC(O2)C1C(=O)O` (centres unmarked) [compound 1220], in the data set on viable cells in culture, the “Average Cell Viability after 24 Hours (% DMSO)” value worked out at 48.07 % DMSO. In data set [1], the “Average Number of hTERT Transcripts” value was 6.37.
In the case of `COc1ccc(OC)c(NC(=O)C2C3CCC(O3)C2C(=O)O)c1` (centres unmarked) [compound 1221], the “Average Cell Viability after 24 Hours (% DMSO)” value in the data set on viable cells in culture is 86.33 % DMSO. In data set [1], the “Average Number of hTERT Transcripts” value is given as 68.62.
As for `O=C(O)C1C2CCC(O2)C1C(=O)NCc1ccco1` (centres unmarked) [compound 1222], the “Average Cell Viability after 24 Hours (% DMSO)” value in the data set on viable cells in culture was 102.27 % DMSO. Also, the “Average Number of hTERT Transcripts” value in data set [1] is recorded as 15.04.
For `O=C(O)C1C2CCC(O2)C1C(=O)N1CCN(c2ccc(F)cc2)CC1` (centres unmarked) [compound 1223], the “Average Cell Viability after 24 Hours (% DMSO)” value in the data set with viable cells in culture was found to be 44.16 % DMSO. In data set [1], the “Average Number of hTERT Transcripts” value was determined as 24.63.
As to `N=c1ccn2c(n1)O[C@@H]1[C@@H](O)[C@H](CO)O[C@@H]12` [compound 1226], the “Average Cell Viability after 24 Hours (% DMSO)” value with viable cells in culture turned out to be 77.96 % DMSO. Also, in data set [1], the “Average Number of hTERT Transcripts” value stood at 31.01.
Take `Cc1cc(C)[n+]2nc3n(-c4ccccc4)c(C)cc(C)c-3c2n1` [compound 1227]: in the data set on viable cells in culture, the “Average Cell Viability after 24 Hours (% DMSO)” value was determined as 77.50 % DMSO. Further, the “Average Number of hTERT Transcripts” value in data set [1] amounted to 72.86.
Consider `CCOC(=O)c1ccc(Nc2nc3nonc3nc2N(CC)CC)cc1` [compound 1228], for which the “Average Cell Viability after 24 Hours (% DMSO)” value with viable cells in culture is reported as 73.46 % DMSO. The “Average Number of hTERT Transcripts” value in data set [1] turned out to be 48.23.
Regarding `Cc1ccc(Nc2nc3nonc3nc2NC(C)(C)C)cc1C` [compound 1229], the “Average Cell Viability after 24 Hours (% DMSO)” value in the data set with viable cells in culture is on record as 79.23 % DMSO. In addition, the “Average Number of hTERT Transcripts” value in data set [1] came to 17.57.
As to `Cc1ccc(Nc2nc3nonc3nc2Nc2ccccc2F)cc1` [compound 1230], in the data set with viable cells in culture, the “Average Cell Viability after 24 Hours (% DMSO)” value is listed as 72.00 % DMSO. Moreover, in data set [1], the “Average Number of hTERT Transcripts” value is 17.54.
With `Cc1cccc(Nc2nc3nonc3nc2Nc2ccc(F)cc2)c1C` [compound 1231], the “Average Cell Viability after 24 Hours (% DMSO)” value with viable cells in culture is on record as 37.70 % DMSO. Moreover, the “Average Number of hTERT Transcripts” value in data set [1] came out at 61.08.
On the same counts, the results for `CCOc1ccc(NC(=O)c2c(NC(=O)c3ccncc3)sc3c2CCC(C(C)(C)C)C3)cc1` (centres unmarked) [compound 1232] are 112.57 % DMSO and 23.68.
On the same counts, the results for `Cc1cccc(NC(=O)c2c(NC(=O)c3ccncc3)sc3c2CCC(C(C)(C)C)C3)c1` (centres unmarked) [compound 1233] are 61.61 % DMSO and 41.94.
With `Cn1c2c(c(=O)[nH]c1=O)C(c1ccccc1)C1=C(N2)c2ccccc2C1=O` (centres unmarked) [compound 1234], the “Average Cell Viability after 24 Hours (% DMSO)” value in the data set on viable cells in culture amounted to 53.62 % DMSO. For the same compound, the “Average Number of hTERT Transcripts” value in data set [1] is reported as 62.81.
